{"source": "patent US12391683B2", "about": "“Therapeutic compounds and methods” (Actio Biosciences, Inc., priority 2022, dated 2025)", "target": "T1, TRPC3 channels (Homo sapiens, UniProt Q13507)", "T1 construct": "expressed in transfected cells; host or cells: HEK293", "T1 sequence (Q13507 1-921)": "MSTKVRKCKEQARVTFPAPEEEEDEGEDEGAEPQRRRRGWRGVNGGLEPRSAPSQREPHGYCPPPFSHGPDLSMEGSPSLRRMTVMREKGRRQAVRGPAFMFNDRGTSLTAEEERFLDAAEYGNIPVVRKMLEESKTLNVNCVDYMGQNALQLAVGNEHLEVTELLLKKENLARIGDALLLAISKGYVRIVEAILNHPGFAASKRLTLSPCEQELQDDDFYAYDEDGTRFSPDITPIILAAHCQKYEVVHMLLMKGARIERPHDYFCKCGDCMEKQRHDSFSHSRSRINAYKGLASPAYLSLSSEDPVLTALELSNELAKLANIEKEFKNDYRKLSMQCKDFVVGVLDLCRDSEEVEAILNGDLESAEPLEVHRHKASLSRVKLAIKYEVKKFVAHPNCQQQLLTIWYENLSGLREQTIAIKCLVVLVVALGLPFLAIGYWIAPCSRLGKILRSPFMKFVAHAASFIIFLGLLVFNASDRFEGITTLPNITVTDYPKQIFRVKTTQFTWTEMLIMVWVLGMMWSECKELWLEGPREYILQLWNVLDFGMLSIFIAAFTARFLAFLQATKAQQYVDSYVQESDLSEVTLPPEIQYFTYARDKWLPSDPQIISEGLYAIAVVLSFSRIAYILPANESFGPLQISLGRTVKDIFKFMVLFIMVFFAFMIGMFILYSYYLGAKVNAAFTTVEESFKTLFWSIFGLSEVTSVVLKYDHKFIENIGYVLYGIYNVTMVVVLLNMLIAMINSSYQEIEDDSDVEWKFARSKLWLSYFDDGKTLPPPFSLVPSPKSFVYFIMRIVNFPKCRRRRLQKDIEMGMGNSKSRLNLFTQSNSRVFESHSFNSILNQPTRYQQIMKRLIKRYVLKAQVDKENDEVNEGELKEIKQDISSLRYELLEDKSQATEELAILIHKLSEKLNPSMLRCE", "test": "TRP Family FLIPR Assay, TRPC3", "format": "cell-based", "conditions": "HEK293 cells", "description": "The compound of Example 5 was tested for selectivity against a panel of Human TRP family ion channels in a TRP Family FLIPR Assay as described below. • 1. TRPC3 channels (human TRPC3 variant 1 gene, expressed in HEK293 cells). • 2. TRPC4 channels (human TRPC4 gene, expressed in HEK293 cells). • 3. TRPC5 channels (human TRPC5 gene, expressed in HEK293 cells). • 4. TRPC6 channels (human TRPC6 gene, expressed in HEK293 cells). • 5. TRPM2 channels (human TRPM2 gene, transiently expressed in HEK293 cells). • 6. TRPM3 channels (human TRPM3 gene, transiently expressed in HEK293 cells). • 7. TRPM4 channels (human TRPM4 gene, expressed in CHO cells). • 8. […]\nData acquisition was performed via the FLIPR Control software supplied with the FLIPR System (MDS-AT) and data was analyzed using Microsoft Excel (Microsoft Corp., Redmond, WA) or GraphPad Prism. […]\n[formula] where Base is the response at low concentrations of test article, Max is the maximum response at high concentrations, xhalf the EC50, or IC50, the concentration of test article producing either half-maximal activation or inhibition, and rate is the Hill coefficient. […] No assumptions about the fit parameters was made; the fit parameters were determined by the algorithm.\nThe effect of each test article was evaluated at eight (8) concentrations: 0.003, 0.01, 0.03, 0.1, 0.3, 1, 3 and 10 μM, n≤4 wells/concentration). […]", "data": [{"smiles": "CC(C)(O)c1cnc(N2C[C@@]3(CC[C@@H](F)[C@](C)(Cn4cnc5ccc(C#N)cc54)C3)OC2=O)cn1", "note": "(single isomer, unassigned) [Example 5]", "values": [{"measurement": "EC50", "setting": "agonist mode, vs EMAX of GSK1702934A 30 μM, read-out: EC50 hTRPC3", "value": "> 10", "unit": "µM"}, {"measurement": "IC50", "setting": "antagonist mode, activated with 15 μM GSK1702934A, 0.003-10 μM, read-out: IC50 hTRPC3", "value": "> 10", "unit": "µM"}]}]}
